Laboratory results taken from patent publication US20200048469A1, “POLYMERIC TANDEM DYES HAVING PENDANT NARROW EMISSION ACCEPTOR” (Becton, Dickinson and Company, priority 2018, published 2020).

Legend:
[1] = Spectroscopic characterization of BODIPY dyes (absorption, emission, FWHM, quantum yield); format: physicochemical; details: for Abs Max / Em Max: Table 1, free dye, solvent not stated; for FWHM: Table 1, full width half maximum of emission, free dye
Description: (§1) A variety of BODIPY dyes were prepared and conjugated to polymeric dyes to prepare polymeric tandem dyes. […] The spectroscopic characteristics of particular BODIPY dyes and polymeric tandem dyes including the same were assessed. […] Further details of exemplary BODPY dyes and tandem dyes including the same are provided below in Tables 1 and 2.

[2] = Absorption and emission spectra of free narrow emission dyes in ethanol; format: physicochemical
Description: as §1

Row | Molecule | Abs Max [1] [nm] | Em Max [1] [nm] | FWHM [1] [nm] | other results
1 | Cc1cc(C)n2c1C=C1C=CC(CCC(=O)O)=[N+]1[B-]2(F)F [BODIPY FL] | 505 | 513 | 21 | –
2 | O=C(O)CCc1ccc2n1[B-](F)(F)[N+]1=C(c3ccccc3)C=CC1=C2 [BODIPY R6G] | 533 | 550 | 26 | –
3 | CCN1\C(=C/C=C/C=C/C2=[N+](CCCCCC(=O)O)c3ccc4c(S(=O)(=O)O)cc(S(=O)(=O)O)cc4c3C2(C)C)C(C)(C)c2c1ccc1c(S(=O)(=O)[O-])cc(S(=O)(=O)O)cc21 [Cy5.5] | – | – | – | Dye Abs. max ([2]; dye in ethanol): 673 nm; Dye Em. FWHM ([2]; dye in ethanol): 42 nm; Dye Em. Max ([2]; dye in ethanol): 691 nm; Dye Stokes Shift ([2]; dye in ethanol): 18 nm
4 | CCN1/C(=C/C=C/C=C/C2=[N+](CCCCCC(=O)O)c3ccc(S(=O)(=O)O)cc3C2(C)C)C(C)(C)c2cc(S(=O)(=O)[O-])ccc21 [Cy5] | – | – | – | Dye Abs. max ([2]; dye in ethanol): 649 nm; Dye Em. FWHM ([2]; dye in ethanol): 35 nm; Dye Em. Max ([2]; dye in ethanol): 666 nm; Dye Stokes Shift ([2]; dye in ethanol): 17 nm
5 | CCN1C(=CC=CC=CC=CC2=[N+](CCCCCC(=O)O)c3ccc(S(=O)(=O)O)cc3C2(C)C)C(C)(C)c2cc(S(=O)(=O)[O-])ccc21 [Cy7] | – | – | – | Dye Abs. max ([2]; dye in ethanol): 752 nm; Dye Em. FWHM ([2]; dye in ethanol): 52 nm; Dye Em. Max ([2]; dye in ethanol): 776 nm; Dye Stokes Shift ([2]; dye in ethanol): 24 nm
6 | BODIPY 581/591 | 582 | 590 | 29 | –
7 | BODIPY 630/650 | 630 | 641 | 30 | –
8 | BODIPY 650/665 | 650 | 665 | 37 | –
9 | BODIPY TMR | 550 | 570 | 30 | –
10 | BODIPY TR | 590 | 620 | 35 | –
11 | CF594 | – | – | – | Dye Abs. max ([2]; measured in DMAC): 592 nm; Dye Em. FWHM ([2]; measured in DMAC): 37 nm; Dye Em. Max ([2]; measured in DMAC): 615 nm; Dye Stokes Shift ([2]; measured in DMAC): 23 nm
